According to US20110171291A1, “PATHOLOGICALLY-ACTIVATED THERAPEUTICS” (Sanford-Burnham Medical Research Institute, priority 2010, published 2011):

Assays:
[1] = system: AMPA/KA-type glutamate receptor; assay: Primary screen of the LOPAC 1280 library: Fluo-4 NW calcium entry induced by kainate in cultured cerebrocortical neurons; format: cell-based; conditions: three separate screens; 200 μM KA
Description: FIGS. 19a and 19b show the fluorescence response indicating calcium ion entry induced by Kainate (KA) at AMPA-type glutamate receptor channels in cultured neurons. Fluorescent dye loading is accomplished by adding Fluo-4 NW to cells at 37° C. for 20 min and at RT (room temperature) for 10 min. The cells are incubated with compounds to be screened (generally 1 to 10 μM in 1% DMSO) for 2 min, followed by incubation with 200 μM kainate (KA) for 10 min (20 μM KA is used for the second, lower concentration of agonist—not shown here). […] The Z-factor, a statistical indication of the robustness of a high-throughput screen, fluctuated between 0.54-0.73 through the time course. This range of Z-factors is more than adequate for HTS (a value of Z≧0.5 generally indicates a robust screen).
The disclosed methods screen for uncompetitive drugs against a number of targets. […] Primary neurons or cell lines are used that contain (or are genetically engineered to contain) a target molecule on their surface, such as the AMPA/kainate-type glutamate receptors with unedited GluR2 subunits or other molecules that result in intracellular Ca^2+ signaling, such as G-protein-coupled receptors. […] Screening (by quantifying the Ca^2+ response) with two concentrations of agonist for the target, a low concentration and a higher concentration, against chemicals in the library administered at a single micromolar concentration. For these AMPA receptors, kainate can be used as the agonist for HTS because the responses are less desensitizing than those to AMPA. The agonist results in an increase in intracellular Ca^2+ that can be monitored by HTS using the Ca^2+ indicator dye fluo-4 NW.
Using cerebrocortical neurons and calcium-sensitive dyes, as described above, conditions have been optimized for screening for AMPA/Kainate-receptor antagonists. For this purpose, the following experimental parameters were varied: cell density, composition of culture medium, length of cultures, type of calcium-sensitive dye, and condition (temperature and length) of dye loading. The following protocol was established. […]

[2] = system: NMDA receptor; assay: Excitatory postsynaptic currents (EPSCs) recorded from the hippocampal autapse preparation; format: cell-based; conditions: 1 μM
Source text: Note that the initial component of the EPSC is mediated by AMPA-sensitive glutamate receptors, whereas a delayed component is mediated by NMDA receptors. […] See Chen, H.-S. V. et al. Neuroscience 86, 1121-1132 (1998).

[3] = system: brain damage after the ischaemic event; conditions: given up to 2 hours after the ischaemic event; cited from earlier work
[4] = system: rhodanese; assay: PDI chaperone activity: aggregation of guanidinium-denatured rhodanese; format: biochemical; conditions: 1 μM recombinant PDI
Description: To determine whether S-nitrosylation affects PDI function, PDI chaperone and isomerase activities were monitored. Chaperone activity was assessed in a standard assay by measuring the degree of aggregation of rhodanese induced by guanidinium, as previously described9. Rhodanese aggregation occurred in a time-dependent manner, and incubation with recombinant wild-type PDI, but not dominantnegative PDI (produced by the N-terminal and C-terminal mutant) (Ko, H. S., et al. J. Biol. Chem., 277, 35386-35392, (2002)), suppressed this aggregation by about 80%. […] Thus, S-nitrosylation inhibited the functional activities of PDI. […] Therefore, the inhibitory effect of PDI on the aggregation of synphilin-1 was investigated, as observed in Lewy body inclusions in the brains of PD patients. First, it was tested if PDI could prevent the ubiquitinated, Lewy-body-like inclusions that are formed in the cytosol after synphilin-1 overexpression in cultured SH-SY5Y cells (See FIG. 2c). […]
Chaperone activity of PDI was measured by analyzing the renaturation (refolding) of denatured rhodanese in the presence of 1 μM PDI or its mutant form (Vuori, K., et al. J. Biol. Chem, 267, 7211-7214, (1992); Horibe, T. et al. J. Biol. Chem. 279, 4604-4611 (2004); Martin, J. et al. Nature 352, 36-42 (1991)). […] The aggregation of denatured rhodanese was monitored by the increase in absorbance at 320 nm. […]

Row | Molecule | scored as hit (significantly blocked calcium entry induced by KA) [1] | block of the NMDA receptor-mediated component of the EPSC [2] | further results
1 | N#Cc1cc2[nH]c(=O)c(=O)[nH]c2cc1[N+](=O)[O-] [CNQX] | positively scored |  | 
2 | O=[N+]([O-])c1cc2nc(O)c(O)nc2cc1[N+](=O)[O-] [DNQX] | scored positively in all three screens |  | 
3 | C[C@]12N[C@H](Cc3ccccc31)c1ccccc12 [MK-801, dizocilpine] |  | complete blockade | 
4 | NS(=O)(=O)c1cccc2c1c([N+](=O)[O-])cc1nc(O)c(O)nc12 [NBQX] | scored positively in all three screens |  | 
5 | CC12CC3CC(C)(C1)CC(N)(C3)C2 [memantine] |  | 10-15% | reduction of brain damage [3]: approximately 50%
6 | wild-type PDI: recombinant wild-type protein-disulphide isomerase |  |  | suppression of rhodanese aggregation [4]: about 80%
